Patent publication US7396842B2, “Five-membered cyclic compounds” (Dianippon Sumitomo Pharma Co., Ltd., priority 2002, dated 2008)

Each molecule was assayed against T1, SMBS on rat lung membranes (Rattus norvegicus, UniProt A0A8I6A822) (assay: Receptor binding of the compound in rat lung membranes ([125I]-iodo-cyanopindolol ligand binding assay; Experiments 1 and 4)). Conditions: Table 43; concentration tested 30 μM; rat lung membranes; Experiment 4; read-out: Binding Activity (30 μM).
T1 construct: from tissue; host or cells: rat lung membranes (SD male rats)
T1 sequence (A0A8I6A822 27-587): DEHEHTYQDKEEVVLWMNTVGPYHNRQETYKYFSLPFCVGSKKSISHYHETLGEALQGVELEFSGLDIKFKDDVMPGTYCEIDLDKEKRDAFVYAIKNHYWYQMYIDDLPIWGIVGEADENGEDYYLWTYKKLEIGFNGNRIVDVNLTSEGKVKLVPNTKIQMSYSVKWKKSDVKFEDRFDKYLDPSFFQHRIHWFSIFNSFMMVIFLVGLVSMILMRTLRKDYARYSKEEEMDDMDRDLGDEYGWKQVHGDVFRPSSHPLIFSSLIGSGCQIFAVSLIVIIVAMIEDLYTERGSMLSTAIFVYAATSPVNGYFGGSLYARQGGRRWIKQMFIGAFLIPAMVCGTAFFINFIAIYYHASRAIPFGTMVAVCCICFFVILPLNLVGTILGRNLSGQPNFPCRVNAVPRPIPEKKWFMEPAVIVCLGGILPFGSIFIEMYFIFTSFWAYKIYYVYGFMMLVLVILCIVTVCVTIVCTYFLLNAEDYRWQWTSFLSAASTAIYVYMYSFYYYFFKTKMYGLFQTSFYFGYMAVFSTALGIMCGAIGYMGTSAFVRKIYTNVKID
Procedure: Evaluation Test on Receptor Binding of the Compound in Rat Lung Membranes:
This experiment was carried out according to the method disclosed in Sugasawa et al., (Sugasawa, T. et al., J. Biol. Chem., 272, 21244-21252(1997)).
Preparation of Rat Lung Membranes
The air tube and blood vessels were removed from the lung excised from SD male rats (7-weeks old when used, purchased from Charles River Japan, Inc.), and the lung was chopped, and washed with ice-cold tris-saline buffer (10 mM Tris-HCl, 154 mM sodium chloride, pH 7.4). The lung was homogenized by PHYSCOTRON (maximum speed: 1 minute) in a buffer for homogenization (tris-saline buffer containing 1 mM ethylenediaminetetraacetate (EDTA), 1 mM 4-(2-aminoethyl)-benzenesulfonyl fluoride (AEBSF), 5 μg/ml aprotinin, 5 μg/ml leupeptin) under ice-cooling. The mixture was centrifuged at a low speed (1500×g, 20 minutes, 4° C.), and the supernatant was super-centrifuged (100000×g, 20 minutes, 4° C.). The pellets thus obtained were suspended in tris-saline buffer, and kept at −80° C. The concentration of protein was measured by a Protein Assay Kit manufactured by Bio-Rad using bovine serum albumin (BSA) as standard.
To each well of a protein-non-adsorbent round-bottom 96-well assay plate (purchased from IWAKI GLASS CO., LTD.) was added tris-saline buffer (200 μl) containing 1 nM [^125I]-iodo-cyanopindolol (purchased from Amarsham), 10 μM serotonin, 20 μM dl-propranol, 10 μM phentoramine, 1.1 mM ascorbic acid and 100 μg lung membranes, and the mixture was mixed well by pipetting, and the plate was incubated at 37° C. for 30 minutes. Test compounds were dissolved in 100% dimethylsulfoxide, and added to the plate in an amount of 2 μl (final concentration of DMSO: 1%). In order to obtain non-specific binding, L-threo-3-(3,4-dihydroxyphenyl)-N-[3-(4-fluorophenyl)propyl]-serinepyrrolidinamide was added at a final concentration of 100 μM instead of test compound. During this period, 0.3% polyethyleneimine (PEI)/tris-saline buffer (100 μl) was added to a multiscreen plate (96-well B-glassfiber, milipore Cat. No. MAFB NOB10) and the plate was incubated for more than 30 minutes. The plate was washed by vacuum filtration (by adding ice-cold tris-saline buffer (200 μl) and then vacuum filtration), and the reaction solution on the 96-well assay plate was washed by vacuum filtration onto the multiscreen plate for four times. The B-glassfiber paper filter at the bottom of the multiscreen plate was punched out, and the γ-ray amount of [^125I]-iodo-cyanopindolol being trapped onto the paper filter was measured as binding amount. The binding amount in the presence of DMSO (final concentration: 1%) was regarded as total binding, and the binding in the presence of L-threo-3-(3,4-dihydroxyphenyl) -N-[3-(4-fluorophenyl)-propyl]serinepyrrolidinamide was regarded as non-specific binding. The value which is calculated by subtracting non-specific binding from total binding is specific binding. The binding activity of the compound can be calculated by the following equation, and expressed in a ratio of inhibiting the specific binding of [^125I]-iodo-cyanopindorol to SMBS on rat lung membranes.
In the same manner to in Experiment 1, the receptor binding assay was carried out on the present compounds by using the rat lung membranes.

inhibition at 30 µM [%]	Compound
113	CCNC(=O)CNCCCn1c(-c2ccc(OC(F)(F)F)cc2)cs/c1=N\Cc1ccc(Cl)cc1 [Example 417, N^2-{3-[2-[(4-Chlorobenzyl)imino]-4-[4-(trifluoromethoxy)phenyl]-1,3-thiazol-3(2H)-yl]propyl}-N^1-ethylglycinamide]

Same assay, conditions: Table 44; concentration tested 30 μM; rat lung membranes; Experiment 4; read-out: Binding Activity (30 μM)

inhibition at 30 µM [%]	Compound
113	O=C(CNCCCn1c(-c2ccc(OC(F)(F)F)cc2)cs/c1=N\Cc1ccc(Cl)cc1)NCCO [Example 423]
100	O=C(O)CNCCCn1c(-c2ccc(OC(F)(F)F)cc2)cs/c1=N\Cc1ccc(Cl)cc1 [Example 427, N-{3-[2-[(4-Chlorobenzyl)imino]-4-[4-(trifluoromethoxy)phenyl]-1,3-thiazol-3(2H)-yl]propyl}glycine]
103	O=C(O)CCNCCCn1c(-c2ccc(OC(F)(F)F)cc2)cs/c1=N\Cc1ccc(Cl)cc1 [Example 428]
103	COc1cc(Cl)ccc1C/N=c1\scc(-c2ccc(F)cc2)n1CCCNC(=N)N [Example 429, N′-{3-[2-[(4-Chloro-2-methoxybenzyl)imino]-4-(4-fluorophenyl)-1,3-thiazol-3(2H)-yl]propyl}guanidine]
89	CCS(=O)(=O)NCCCn1c(-c2ccc(OC(F)(F)F)cc2)cs/c1=N\Cc1ccc(Cl)cc1 [Example 430, N′-{3-[2-[(4-Chlorobenzyl)imino]-4-[4-(trifluoromethoxy)phenyl]-1,3-thiazol-3(2H)-yl]propyl}ethanesulfonamide]
95	COc1ccc(C(=O)/N=c2\scc(C(=O)Nc3ccc(Cl)cc3)n2CCCN)c(OC)c1 [Example 431, 3-(3-Aminopropyl)-N-(4-chlorophenyl)-2-[(2,4-dimethoxybenzoyl)imino]-2,3-dihydro-1,3-thiazol-4-carboxamide]
42	COc1ccc(C(=O)/N=c2\scc(C(=O)N3CCc4ccccc4C3)n2CCCN)c(OC)c1 [Example 432]
93	COc1ccc(C(=O)/N=c2\scc(C(=O)NCCCCc3ccccc3)n2CCCN)c(OC)c1 [Example 435]
106	COc1ccc(C(=O)/N=c2\scc(-c3ccc(OC(F)(F)F)cc3)n2CCCN)c(OC)c1 [Example 437]
61	NCCCn1c(-c2ccc(OC(F)(F)F)cc2)cs/c1=N\C(=O)c1ccco1 [Example 441]
99	CCOC(=O)NCCCn1c(-c2ccc(OC(F)(F)F)cc2)cs/c1=N\C(=O)c1ccc(OC)cc1OC [Example 444]
89	CCCC(=O)NCCCn1c(-c2ccc(OC(F)(F)F)cc2)cs/c1=N\C(=O)c1ccc(OC)cc1OC [Example 447]
77	CCCCCC(=O)NCCCn1c(-c2ccc(OC(F)(F)F)cc2)cs/c1=N\C(=O)c1ccc(OC)cc1OC [Example 448]
71	CC(=O)NCCCn1c(-c2ccc(OC(F)(F)F)cc2)cs/c1=N\C(=O)c1ccccn1 [Example 449]
84	CC(=O)NCCCn1c(-c2ccc(OC(F)(F)F)cc2)cs/c1=N\C(=O)c1ccncc1 [Example 452]
38	CC(=O)NCCCn1c(-c2ccc(OC(F)(F)F)cc2)cs/c1=N\C(=O)CCc1ccccc1 [Example 454]
87	CC(=O)NCCCn1c(-c2ccc(OC(F)(F)F)cc2)cs/c1=N\C(=O)CC1CCCC1 [Example 458]
33	COc1ccc(C(=O)N=c2scc(CNS(=O)(=O)c3ccc(C)cc3)n2CCCNC(C)=O)c(OC)c1 [Example 473, N-[3-[3-(Acetylamino)propyl]-4-({[(4-methylphenyl)sulfonyl]amino}-methyl)thiazol-2(3H)-ylidene]-2,4-dimethoxybenzamide]

Same assay, conditions: ratio of inhibiting the specific binding of [125I]-iodo-cyanopindolol; test concentration 30 μM; rat lung membranes; read-out: Binding Activity (30 μM)

inhibition at 30 µM [%]	Compound
42	COc1ccc(C(=O)/N=c2\scc(C(=O)Nc3ccc(Cl)cc3)n2CCCNC(C)=O)c(OC)c1 [Example 461]
10	COc1ccc(C(=O)/N=c2\scc(C(=O)NCc3ccc(Cl)cc3)n2CCCNC(C)=O)c(OC)c1 [Example 463]
85	COc1ccc(C(=O)/N=c2\scc(-c3ccc(OC(F)(F)F)cc3)n2CCCNC(=O)CN(C)C)c(OC)c1 [Example 482]
97	CCNC(=O)NCCCn1c(-c2ccc(OC(F)(F)F)cc2)cs/c1=N\C(=O)c1ccc(OC)cc1OC [Example 484]
65	CCNC(=S)NCCCn1c(-c2ccc(OC(F)(F)F)cc2)cs/c1=N\C(=O)c1ccc(OC)cc1OC [Example 494]
80	CCNC(=O)NCCCn1c(-c2ccc(F)cc2)cs/c1=N\C(=O)c1ccc(Cl)cc1OC [Example 496]
102	COc1ccc(C(=O)/N=c2\scc(-c3ccc(OC(F)(F)F)cc3)n2CCCNC(=O)N(C)C)c(OC)c1 [Example 508]
103	COc1ccc(C(=O)/N=c2\scc(-c3ccc(OC(F)(F)F)cc3)n2CCCNC(=O)N2CCOCC2)c(OC)c1 [Example 509]
99	CCOC(=O)CCNCCCn1c(-c2ccc(OC(F)(F)F)cc2)cs/c1=N\C(=O)c1ccc(OC)cc1OC [Example 520]
74	COc1ccc(C(=O)/N=c2\scc(-c3ccc(OC(F)(F)F)cc3)n2CCCNCC(N)=O)c(OC)c1 [Example 521]
73	COc1ccc(C(=O)/N=c2\scc(-c3ccc(OC(F)(F)F)cc3)n2CCCNCC(=O)NCC(=O)O)c(OC)c1 [Example 523]
32	COc1ccc(C(=O)/N=c2\scc(-c3ccc(OC(F)(F)F)cc3)n2CCCNCC(=O)O)c(OC)c1 [Example 531]
87	COc1ccc(C(=O)/N=c2\scc(-c3ccc(OC(F)(F)F)cc3)n2CCCNC(=N)N)c(OC)c1 [Example 534]
108	COc1ccc(C(=O)/N=c2\scc(-c3ccc(OC(F)(F)F)cc3)n2CCCNC(=N)N2CCCCC2)c(OC)c1 [Example 535]
67	CCS(=O)(=O)NCCCn1c(-c2ccc(OC(F)(F)F)cc2)cs/c1=N\C(=O)c1ccc(OC)cc1OC [Example 536]
